Data as given in patent publication US20260125370A1, “SULFOXIMINE COMPOUNDS AS HISTONE DEACETYLASE 6 INHIBITOR, AND PHARMACEUTICAL COMPOSITION COMPRISING THE SAME” (CHONG KUN DANG PHARMACEUTICAL CORP., priority 2022, published 2026).

Columns and labels:
human recombinant HDAC6 = molecular target: T1, human recombinant HDAC6 (Homo sapiens, UniProt Q9UBN7); assay: HDAC6 enzyme activity inhibition (fluorimetric, in vitro); type: biochemical; conditions: samples at 0.1, 1, 10, 100 and 1000 nM
T1 construct: purchased Calbiochem 382180
T1 sequence (Q9UBN7 1-1215): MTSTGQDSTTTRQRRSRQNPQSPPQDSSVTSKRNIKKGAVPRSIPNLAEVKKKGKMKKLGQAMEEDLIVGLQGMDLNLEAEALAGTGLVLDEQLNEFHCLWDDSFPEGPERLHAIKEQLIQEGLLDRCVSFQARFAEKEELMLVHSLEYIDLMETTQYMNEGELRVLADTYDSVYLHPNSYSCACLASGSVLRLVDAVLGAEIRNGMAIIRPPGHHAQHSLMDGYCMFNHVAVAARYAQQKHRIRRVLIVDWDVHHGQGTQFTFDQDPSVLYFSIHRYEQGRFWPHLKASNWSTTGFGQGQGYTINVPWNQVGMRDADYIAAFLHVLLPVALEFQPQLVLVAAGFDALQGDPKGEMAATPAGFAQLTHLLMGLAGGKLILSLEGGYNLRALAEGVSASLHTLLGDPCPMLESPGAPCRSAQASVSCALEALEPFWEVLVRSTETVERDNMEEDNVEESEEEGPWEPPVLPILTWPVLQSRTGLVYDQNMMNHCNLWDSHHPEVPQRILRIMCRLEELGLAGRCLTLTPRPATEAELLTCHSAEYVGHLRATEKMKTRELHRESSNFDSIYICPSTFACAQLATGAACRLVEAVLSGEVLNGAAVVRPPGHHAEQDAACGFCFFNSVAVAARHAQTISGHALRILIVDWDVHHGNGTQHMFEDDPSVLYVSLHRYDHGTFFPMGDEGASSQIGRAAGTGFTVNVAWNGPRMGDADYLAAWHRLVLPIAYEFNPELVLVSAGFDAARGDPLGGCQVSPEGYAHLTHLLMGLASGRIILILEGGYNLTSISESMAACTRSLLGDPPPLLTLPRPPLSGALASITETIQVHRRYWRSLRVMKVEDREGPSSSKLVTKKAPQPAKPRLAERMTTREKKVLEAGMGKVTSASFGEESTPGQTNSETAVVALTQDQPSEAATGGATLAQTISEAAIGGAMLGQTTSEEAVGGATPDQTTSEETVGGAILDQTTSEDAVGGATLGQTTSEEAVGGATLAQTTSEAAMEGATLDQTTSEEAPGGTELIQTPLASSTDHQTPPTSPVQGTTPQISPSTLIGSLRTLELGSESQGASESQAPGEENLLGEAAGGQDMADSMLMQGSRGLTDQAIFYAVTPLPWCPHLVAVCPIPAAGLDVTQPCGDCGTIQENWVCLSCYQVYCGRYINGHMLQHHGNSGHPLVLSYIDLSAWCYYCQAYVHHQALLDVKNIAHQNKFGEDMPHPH
Outline: (§1)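 Recombinant human HDAC1 or HDAC6 (0.3 μg) with Fluor de Lys-SIRT1 substrate at […], 60 min at 37 °C, then developer 30 min; fluorescence Ex 360/Em 460. Compounds at 100–10000 nM for HDAC1 and 0.1–1000 nM for HDAC6; IC50 calculated.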

human recombinant HDAC1 = molecular target: T2, human recombinant HDAC1 (Homo sapiens, UniProt Q13547); assay: HDAC1 enzyme activity inhibition (HDAC1 Fluorimetric Drug Discovery Assay Kit, in vitro); type: biochemical; conditions: samples at 100, 1000 and 10000 nM
T2 construct: purchased Enzolifesciences BML-SE456
Outline: as §1

T2 sequence (Q13547 whole entry): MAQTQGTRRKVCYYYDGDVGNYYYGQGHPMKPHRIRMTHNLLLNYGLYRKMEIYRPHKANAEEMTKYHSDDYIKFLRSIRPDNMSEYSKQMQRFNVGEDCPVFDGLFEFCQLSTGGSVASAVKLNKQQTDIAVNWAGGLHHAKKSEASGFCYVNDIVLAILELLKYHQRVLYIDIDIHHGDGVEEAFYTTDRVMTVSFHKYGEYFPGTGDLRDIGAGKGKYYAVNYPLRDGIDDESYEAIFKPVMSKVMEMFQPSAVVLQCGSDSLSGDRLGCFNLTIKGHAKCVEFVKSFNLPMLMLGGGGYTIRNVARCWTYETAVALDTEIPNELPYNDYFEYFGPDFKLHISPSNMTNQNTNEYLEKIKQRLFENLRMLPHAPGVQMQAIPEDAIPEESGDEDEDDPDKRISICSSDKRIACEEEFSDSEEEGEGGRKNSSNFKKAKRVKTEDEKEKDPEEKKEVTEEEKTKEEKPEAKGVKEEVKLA

Row | Compound | IC50 (human recombinant HDAC6) | IC50 (human recombinant HDAC1)
1 | CS(=O)(=O)N=S1(=O)CCN(C(=O)N(Cc2ccc(-c3nnc(C(F)F)o3)cn2)c2ccccc2)CC1 [Compound 53, N-((5-(5-(difluoromethyl)-1,3,4-oxadiazol-2-yl)pyridin-2-yl)methyl)-1-((methylsulfonyl)imino)-N-phenylthiomorpholin-4-carboxamide 1-oxide] | 40.6 nM | > 10000 nM
2 | N=S1(=O)CC2(CN(C(=O)N(Cc3ccc(-c4nnc(C(F)F)o4)cc3F)c3ccccc3)C2)C1 [Compound 92, N-[[4-[5-(difluoromethyl)-1,3,4-oxadiazol-2-yl]-2-fluoro-phenyl]methyl]-2-imino-2-oxo-N-phenyl-2lambda6-thia-6-azaspiro[3.3]heptan-6-carboxamide] | 93.9 nM | > 10000 nM
3 | CS(=N)(=O)C1CCN(C(=O)N(Cc2ccc(-c3nnc(C(F)F)o3)cc2F)c2ccccc2)CC1 (centres unmarked) [Compound 75, N-[[4-[5-(difluoromethyl)-1,3,4-oxadiazol-2-yl]-2-fluoro-phenyl]methyl]-4-(methylsulfonimidoyl)-N-phenyl-piperidin-1-carboxamide] | 96.3 nM | > 10000 nM
4 | N=S1(=O)CC(N2CC3(CN(C(=O)N(Cc4ccc(-c5nnc(C(F)F)o5)cc4F)c4ccccc4)C3)C2)C1 (centres unmarked) [Compound 83, N-[[4-[5-(difluoromethyl)-1,3,4-oxadiazol-2-yl]-2-fluoro-phenyl]methyl]-6-(1-imino-1-oxo-thiethan-3-yl)-N-phenyl-2,6-diazaspiro[3.3]heptan-2-carboxamide] | 71.3 nM | > 10000 nM
5 | N=S1(=O)CCN(S(=O)(=O)N(Cc2ncc(-c3nnc(C(F)F)o3)s2)c2ccccc2)CC1 [Compound 86, N-[[5-[5-(difluoromethyl)-1,3,4-oxadiazol-2-yl]thiazol-2-yl]methyl]-1-imino-1-oxo-N-phenyl-1,4-thiazinan-4-sulfonamide] | 50.2 nM | > 10000 nM
6 | N=S1(=O)CCN(S(=O)(=O)N(Cc2ccc(-c3nnc(C(F)F)o3)cc2F)c2ccc(F)cc2)CC1 [Compound 78, N-[[4-[5-(difluoromethyl)-1,3,4-oxadiazol-2-yl]-2-fluoro-phenyl]methyl]-N-(4-fluorophenyl)-1-imino-1-oxo-1,4-thiazinan-4-sulfonamide] | 78.7 nM | > 10000 nM
7 | CC(=O)N=S1(=O)CCN(C(=O)N(Cc2ccc(-c3nnc(C(F)F)o3)cc2F)c2ccccc2)CC1 [Compound 40, 1-(acetylimino)-N-(4-(5-(difluoromethyl)-1,3,4-oxadiazol-2-yl)-2-fluorobenzyl)-N-phenylthiomorpholin-4-carboxamide 1-oxide] | 84.8 nM | > 10000 nM
8 | N=S1(=O)CCN(C(=O)N(Cc2ccc(-c3nnc(C(F)F)o3)cc2F)c2ccsc2)CC1 [Compound 26, N-(4-(5-(difluoromethyl)-1,3,4-oxadiazol-2-yl)-2-fluorobenzyl)-1-imino-N-(thiophen-3-yl)thiomorpholin-4-carboxamide 1-oxide] | 98.6 nM | > 10000 nM
9 | CC(=O)N1CCC(c2ccc(N(Cc3ccc(-c4nnc(C(F)F)o4)cc3F)C(=O)N3CCS(=N)(=O)CC3)cc2)CC1 [Compound 67] | 347 nM | > 10000 nM
10 | N=S1(=O)CCN(CCS(=O)(=O)N(Cc2ccc(-c3nnc(C(F)F)o3)cc2F)c2ccccc2)CC1 [Compound 74, N-[[4-[5-(difluoromethyl)-1,3,4-oxadiazol-2-yl]-2-fluoro-phenyl]methyl]-2-(1-imino-1-oxo-1,4-thiazinan-4-yl)-N-phenyl-ethanesulfonamide] | 63.6 nM | > 10000 nM
11 | CC(=O)N=S1(=O)CCN(C(=O)N(Cc2ccc(-c3nnc(C(F)F)o3)cn2)c2ccc(F)c(F)c2)CC1 [Compound 30, 1-(acetylimino)-N-((5-(5-(difluoromethyl)-1,3,4-oxadiazol-2-yl)pyridin-2-yl)methyl)-N-(3,4-difluorophenyl)thiomorpholin-4-carboxamide 1-oxide] | 54.6 nM | > 10000 nM
12 | COc1cccc(N(Cc2ccc(-c3nnc(C(F)F)o3)cn2)S(=O)(=O)N2CCS(=N)(=O)CC2)c1 [Compound 72, N-[[5-[5-(difluoromethyl)-1,3,4-oxadiazol-2-yl]-2-pyridyl]methyl]-1-imino-N-(3-methoxyphenyl)-1-oxo-1,4-thiazinan-4-sulfonamide] | 78.8 nM | > 10000 nM
13 | N=S1(=O)CCN(S(=O)(=O)N(Cc2ccc(-c3nnc(C(F)F)o3)cc2F)c2cccc(Cl)c2)CC1 [Compound 70, N-(3-chlorophenyl)-N-[[4-[5-(difluoromethyl)-1,3,4-oxadiazol-2-yl]-2-fluoro-phenyl]methyl]-1-imino-1-oxo-1,4-thiazinan-4-sulfonamide] | 52.2 nM | > 10000 nM
14 | N=S1(=O)CCN(C(=O)N(Cc2ccc(-c3nnc(C(F)F)o3)cn2)c2ccc(Cl)cc2Cl)CC1 [Compound 49, N-(2,4-dichlorophenyl)-N-((5-(5-(difluoromethyl)-1,3,4-oxadiazol-2-yl)pyridin-2-yl)methyl)-1-iminothiomorpholin-4-carboxamide 1-oxide] | 77.7 nM | > 10000 nM
15 | N=S1(=O)CCN(C(=O)N(Cc2ccc(-c3nnc(C(F)F)o3)cc2F)c2cccc(F)c2)CC1 [Compound 13, N-(4-(5-(difluoromethyl)-1,3,4-oxadiazol-2-yl)-2-fluorobenzyl)-N-(3-fluorophenyl)-1-iminothiomorpholin-4-carboxamide 1-oxide] | 44 nM | > 10000 nM
16 | COC(=O)N=S1(=O)CCN(C(=O)N(Cc2ccc(-c3nnc(C(F)F)o3)cc2F)c2ccccc2)CC1 [Compound 38, Methyl (4-((4-(5-(difluoromethyl)-1,3,4-oxadiazol-2-yl)-2-fluorobenzyl)(phenyl)carbamoyl)-1-oxidothiomorpholin-1-ylidene)carbamate] | 67.2 nM | > 10000 nM
17 | CS(=O)(=O)N=S1(=O)CCN(C(=O)N(Cc2ccc(-c3nnc(C(F)F)o3)cc2F)c2ccccc2)CC1 [Compound 37, N-(4-(5-(difluoromethyl)-1,3,4-oxadiazol-2-yl)-2-fluorobenzyl)-1-((methylsulfonyl)imino)-N-phenylthiomorpholin-4-carboxamide 1-oxide] | 61.3 nM | > 10000 nM
18 | CS(=N)(=O)c1ccc(N(Cc2ccc(-c3nnc(C(F)F)o3)cc2F)C(=O)N2CCS(=N)(=O)CC2)cc1 (centres unmarked) [Compound 11, N-(4-(5-(difluoromethyl)-1,3,4-oxadiazol-2-yl)-2-fluorobenzyl)-1-imino-N-(4-(S-methylsulfonimidoyl)phenyl)thiomorpholin-4-carboxamide 1-oxide] | 1420 nM | > 10000 nM
19 | N=S1(=O)CCN(C(=O)N(Cc2ccc(-c3nnc(C(F)F)o3)cc2F)c2cccc(-n3cccc3)c2)CC1 [Compound 34, N-(3-(1H-pyrrol-1-yl)phenyl)-N-(4-(5-(difluoromethyl)-1,3,4-oxadiazol-2-y1)-2-fluorobenzyl)-1-iminothiomorpholin-4-carboxamide 1-oxide] | 91.5 nM | > 10000 nM
20 | CN=S1(=O)CCN(C(=O)N(Cc2ccc(-c3nnc(C(F)F)o3)cc2F)c2ccccc2)CC1 [Compound 39, N-(4-(5-(difluoromethyl)-1,3,4-oxadiazol-2-yl)-2-fluorobenzyl)-1-(methylimino)-N-phenylthiomorpholin-4-carboxamide 1-oxide] | 80.8 nM | > 10000 nM
21 | Cn1ccc2cc(N(Cc3ccc(-c4nnc(C(F)F)o4)cn3)C(=O)N3CCS(=N)(=O)CC3)ccc21 [Compound 14, N-((5-(5-(difluoromethyl)-1,3,4-oxadiazol-2-yl)pyridin-2-yl)methyl)-1-imino-N-(1-methyl-1H-indol-5-yl)thiomorpholin-4-carboxamide 1-oxide] | 94.4 nM | > 10000 nM
22 | N=S1(=O)CCN(C(=O)N(Cc2ccc(-c3nnc(C(F)F)o3)cn2)c2cccc(F)c2)CC1 [Compound 17] | 27.2 nM | > 10000 nM
